# Results reported in PubChem BioAssay (NCI).
#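 Cultured in 96-well plates, cells were exposed to test compound for 48 hours across five concentrations. TGI: concentration producing complete growth inhibition.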
# What was measured:
# Experiment in all cases: inhibition of tumour cell growth, NCI panel, 48 h
# 786-0 renal = test system: 786-0 renal
# A549 NSCLC = test system: A549 NSCLC
# ACHN renal = test system: ACHN renal
# HS 578T breast = test system: HS 578T breast
# HT29 colon = test system: HT29 colon
# MDA-MB-435 = test system: MDA-MB-435
# NCI-H460 lung = test system: NCI-H460 lung
# NCI/ADR-RES ovarian = test system: NCI/ADR-RES ovarian
# PC-3 prostate = test system: PC-3 prostate
# SF-295 CNS = test system: SF-295 CNS
# SK-MEL-28 melanoma = test system: SK-MEL-28 melanoma
# SN12C renal = test system: SN12C renal
# SR leukemia = test system: SR leukemia
# T-47D breast = test system: T-47D breast
# UACC-257 melanoma = test system: UACC-257 melanoma
# MDA-MB-231 breast = test system: MDA-MB-231 breast
# RXF 393 renal = test system: RXF 393 renal
# SF-539 CNS = test system: SF-539 CNS
SMILES,TGI (786-0 renal) [µM],TGI (A549 NSCLC) [µM],TGI (ACHN renal) [µM],TGI (HS 578T breast) [µM],TGI (HT29 colon) [µM],TGI (MDA-MB-435) [µM],TGI (NCI-H460 lung) [µM],TGI (NCI/ADR-RES ovarian) [µM],TGI (PC-3 prostate) [µM],TGI (SF-295 CNS) [µM],TGI (SK-MEL-28 melanoma) [µM],TGI (SN12C renal) [µM],TGI (SR leukemia) [µM],TGI (T-47D breast) [µM],TGI (UACC-257 melanoma) [µM],TGI (MDA-MB-231 breast) [µM],TGI (RXF 393 renal) [µM],TGI (SF-539 CNS) [µM]
CC12CCCC(C(=O)O)(C1)[C@H](C(C)(C)C(=O)O)CC2 (stereo partly specified),> 100,> 100,> 100,> 100,> 100,> 100,> 100,> 100,> 100,> 100,> 100,> 100,> 100,> 100,> 100,–,–,–
COC(=O)C1=CC2C(=O)c3ccccc3C1(c1ccccc1)N2C1CCCCC1 (stereo unspecified),> 100,> 100,> 100,–,> 100,43.4,40.6,> 100,> 100,55.3,41.4,> 100,–,–,39,42.8,24.6,41.5
CC(=O)OCC(OC(C)=O)C1C[C@H]2O[C@@H]3[C@H](C[C@H]2O1)O[C@@]1(C[C@@H]3C)C[C@H](C)[C@@H]2O[C@]3(C[C@@H]2O1)C[C@H]1O[C@H]2[C@H](C)[C@H]4OC(=O)C[C@H]5CC[C@@H]6OC7[C@H]8O[C@]9(CC[C@H]%10CC(=O)[C@H](CC[C@H]%11C[C@@H](C)C(=O)C(C[C@@H]4O[C@H]2C[C@H]1O3)O%11)O%10)CC8O[C@@H]7[C@@H](O9)[C@H]6O5 (stereo partly specified),> 1,> 1,> 1,0.00604,–,0.0171,> 1,> 0.566,> 1,–,> 1,> 1,> 1,–,–,> 1,> 1,–
OC1=C2c3ccccc3NC2Oc2cc(F)ccc21 (stereo unspecified),29.9,52.7,46.7,> 100,38,33.9,38.5,47.3,41.4,29.5,> 100,25.9,–,68.1,41.4,33,38.3,–
C[C@]12CCC(O)CC1=CC[C@@H]1[C@@H]2CC[C@]2(C)C(O)[C@H](n3ccnc3)C[C@@H]12 (stereo partly specified),> 100,> 100,> 100,> 100,> 100,> 100,> 100,> 100,> 100,> 100,> 100,> 100,> 100,–,> 100,> 100,> 100,> 100
C=CC(C)(C)n1cc(C2=C3OC(=O)C(c4cn(C(C)(C)C=C)c5ccccc45)=C3OC2=O)c2ccccc21,> 100,> 100,> 100,–,> 100,> 100,> 100,> 100,> 100,> 100,> 100,> 100,> 100,–,> 100,> 100,> 100,> 100
NC1C/C(=N\O)c2c(Cl)sc(Cl)c21 (stereo unspecified),33.4,> 100,36.4,> 100,54.6,29.5,43.3,67.3,48.8,91.1,33.6,35,> 100,39.7,31.2,–,–,22.1
COc1cc(C(=O)NNC(=O)c2cc(Br)ccc2NC(=O)c2cccs2)cc(OC)c1OC,45.4,61.3,43.6,62.1,41.1,50,73.6,62,> 100,48.9,–,60.3,> 100,> 100,56.9,–,29.1,30
CC(=O)C(C(=O)c1ccc(C)cc1)[C@@H]1OC(C)(C)O[C@@H]1[C@H]1COC(C)(C)O1 (stereo partly specified),21.5,> 91.6,32.5,> 59.8,20,> 59.8,> 88.9,> 70.9,> 31.9,> 100,> 77.7,17.3,–,> 49.8,28.6,> 35.1,36.4,13.2
O=C1C2=Cc3ccccc3CCN2c2ccccc21,> 31.6,> 100,> 31.6,> 100,23,> 56.3,60.2,> 77.9,> 62.7,98.3,> 82.3,> 31.6,29.5,–,> 79.9,> 59.4,–,27.2
N=C1C(=N)c2ccccc2-c2ccccc21.[Cl-].[Ru+2].c1cnc2c(c1)ccc1cccnc12.c1cnc2c(c1)ccc1cccnc12,> 100,> 100,76.6,–,> 100,–,> 100,–,–,> 100,60.7,> 100,> 100,–,46.6,–,> 100,57.8
O=C1CC(Br)c2c(Br)sc(Br)c21 (stereo unspecified),29.9,> 100,31.6,> 100,30.4,39.1,31.4,> 100,39.4,58.7,> 100,29,–,38.3,29.1,35.1,32.9,43.7
O=C1Cc2c([nH]c3ccc(Br)cc23)-c2cc(Br)ccc2N1,> 100,> 100,> 100,–,–,> 100,> 100,> 100,> 100,> 100,> 100,–,–,> 100,> 100,> 100,–,> 100
O=C1c2c(Br)sc(Br)c2C(NC(=O)C(F)(F)F)C1O (stereo unspecified),36.7,58.5,84.2,> 100,53.6,54.3,36,75.2,74.9,35.7,43.7,34.1,–,55.9,36.4,38.5,27.5,32.1
